Measurements reported in ChEMBL document CHEMBL4311960, “Two optimized antimicrobial peptides with therapeutic potential for clinical antibiotic-resistant Staphylococcus aureus” (Eur J Med Chem, 2019).

What was measured:
[1] = tested on: Staphylococcus aureus; experiment: Antibacterial activity against Staphylococcus aureus ATCC 25923 assessed as reduction in bacterial growth incubated for 24 hrs by serial dilution method; assay type: functional; settings: ATCC 25923, 24 h
[2] = tested on: Streptococcus mutans; experiment: Antibacterial activity against Streptococcus mutans UA159 assessed as reduction in bacterial growth incubated for 24 hrs by serial dilution method; assay type: functional; settings: UA159, 24 h
[3] = tested on: Staphylococcus aureus; experiment: Antibacterial activity against methicillin-resistant Staphylococcus aureus ATCC 18466 assessed as reduction in bacterial growth incubated for 24 hrs by serial dilution method; assay type: functional; settings: ATCC 18466, 24 h, read-out: MIC
[4] = tested on: Candida albicans; experiment: Antifungal activity against Candida albicans ATCC 5314 assessed as reduction in fungal growth incubated for 24 hrs by serial dilution method; assay type: functional; settings: ATCC 5314, 24 h, read-out: MIC
[5] = tested on: Streptococcus sanguinis; experiment: Antibacterial activity against Streptococcus sanguinis ATCC 10556 assessed as reduction in bacterial growth incubated for 24 hrs by serial dilution method; assay type: functional; settings: ATCC 10556, 24 h
[6] = tested on: Erythrocyte; experiment: Hemolytic activity in mouse Erythrocyte assessed as HC10 incubated for 1 hr; assay type: ADME, cell-based
[7] = Hemolytic activity in mouse Erythrocyte assessed as HC50 incubated for 1 hr; assay type: ADME, cell-based; settings: mouse erythrocytes
[8] = Hemolytic activity in mouse Erythrocyte at 640 ug/ml incubated for 1 hr relative to control; assay type: ADME, cell-based; settings: mouse erythrocytes, read-out: %max
[9] = Cytotoxicity against human HEK293T cells assessed as cell viability at 640 ug/ml incubated for 48 hrs by MTT assay relative to control; assay type: cell-based, HEK-293T; settings: read-out: Activity
[10] = Cytotoxicity against human HEK293T cells assessed as cell viability at 5 to 640 ug/ml incubated for 48 hrs by MTT assay relative to control; assay type: cell-based, HEK-293T; settings: read-out: Activity

| Substance | MIC ([1]; read-out: MIC) [µg/mL] | MIC ([2]; read-out: MIC) [µg/mL] | MIC [3] [µg/mL] | MIC [4] [µg/mL] | MIC ([5]; read-out: MIC) [µg/mL] | HC10 [6] [µg/mL] | HC50 at 1 h [7] [µg/mL] | hemolysis at 1 h, 640 ug/ml [8] [%] | viability at 48 h, 640 ug/ml [9] [%] | MIC [1] [µg/mL] | MIC [2] [µg/mL] | viability at 48 h [10] [%] | MIC [5] [µg/mL] |
| --- | --- | --- | --- | --- | --- | --- | --- | --- | --- | --- | --- | --- | --- |
| H-WVRKVRRWWKKVKKVVKK-NH2 | < 64 | < 64 | < 64 | < 64 | < 64 | 80.04 | > 640 | 25.5 | 65.7 |  |  |  |  |
| H-WYERLINRKFKWLKGRLSKK-NH2 |  |  | < 64 | < 64 | < 64 | 178.82 | > 640 | 17.3 |  | > 64 | > 64 | 70 to 80 |  |
| H-YEIKINRHFKTLKKNLKK-NH2 | < 64 |  | < 64 | < 64 |  | > 640 | > 640 | 7.94 |  |  | > 64 | 70 to 80 | > 64 |
| H-YFRTIRRFFKKLFKTLKK-NH2 | 64 | < 64 | 64 | 64 | < 64 | 640 | > 640 | 10.3 |  |  |  | 70 to 80 |  |
| H-YIRKINRHFKTLKKNLKK-NH2 | < 64 |  | < 64 | < 64 | < 64 | > 640 | > 640 | 8.07 |  |  | > 64 | 70 to 80 |  |
| H-YIRKIRRFFKKLNKNLKK-NH2 |  | < 64 | < 64 | < 64 |  | > 640 | > 640 | 9.86 |  | > 64 |  | 70 to 80 | > 64 |
| H-YIRKIRRFFKKRFKFRKK-NH2 | 64 | 16 | 32 | 32 | 64 | > 640 | > 640 | 8.21 |  |  |  | 70 to 80 |  |
| H-YIRKIRRFFKTLNKNLKK-NH2 |  | 32 | < 64 | < 64 | < 64 | > 640 | > 640 | 7.17 |  | > 64 |  | 70 to 80 |  |
